Series [1] in a line: UV-Vis absorption and fluorescence spectroscopy (spectral properties in aqueous media / PBS buffer). Type of series: physicochemical. Details: Brightness: unit not given here. As to conditions: for Brightness / Stokes Shift (nm) / FWHMabs (nm) / λabs (nm) / FWHem (nm) / λem (nm) / ε (M^-1 cm-1) / ϕ: aqueous media; for FWHMabs (nm): absorption band width; for λabs (nm): absorption maximum; for FWHem (nm): emission band width; for λem (nm): emission maximum; for ε (M^-1 cm-1): extinction coefficient from Beer's Law plots; for ϕ: relative quantum yield, TMR and SiTMR as reference. As to the method: UV-Vis and fluorescence spectra were collected on a SpectraMax M5 spectrometer with a Microplate reader (Molecular Devices, Sunnyvale, CA). All absorbance spectra were reference corrected. Extinction coefficient was calculated from Beer’s Law plots of absorbance versus concentration. Relative quantum yields are reported using TMR and SiTMR as reference.

A short description of series [2]: Absorption and fluorescence stability against solvent polarity changes (dioxane 20-80% in DI water). The class given is physicochemical. As to conditions: compared with base fluorophores TMR and SiTMR (SiR). The source says: FIG. 2D graphs normalized absorption (left) and fluorescence spectra (right) of fluorophores with varied percentages of dioxane (20-80%) in DI water resulting the polarity of the screening solvent systems changing in a gradient manner.
A. general rhodamine fluorophore structures including the classic TMR, SiTMR, and the sulfonated versions. […] This structural change results because the carboxylate anion attacks the central carbon forming a spirolactone, which is both colorless and non-fluorescent. […] C. […] This change in both absorbance and fluorescence intensity was alleviated using our sulfonated versions.

For `Cc1ccccc1-c1c2cc/c(=[N+](/C)CCCS(=O)(=O)[O-])cc-2oc2cc(N(C)C)ccc12` [OF550], in series [1], the Brightness was determined as 59, the “Stokes Shift (nm)” value was 23 nm, the “FWHMabs (nm)” value was determined as 33 nm and the “λabs (nm)” value was 552 nm. Moreover, in series [1], the “FWHem (nm)” value worked out at 40 nm, the “λem (nm)” value was found to be 575 nm, the “ε (M^-1 cm-1)” value is 97,300 M^-1 cm-1 and the ϕ was determined as 0.61. The “stability of absorbance and fluorescence intensity against solvent polarity changes” value (“stability … against solvent polarity changes” for short) in series [2] was “substantially improved stability”.
Regarding `Cc1ccccc1C1=C2C=C/C(=[N+](/C)CCCS(=O)(=O)[O-])C=C2[Si](C)(C)c2cc(N(C)C)ccc21` [OF650], in series [1] (PBS buffer), the “brightness compared with the base fluorophore SiTMR” value was “five time greater”. For the same molecule, in series [1], the Brightness was determined as 55, the “Stokes Shift (nm)” value is 19 nm, the “FWHMabs (nm)” value stood at 33 nm and the “λabs (nm)” value is recorded as 649 nm. In series [1], the “FWHem (nm)” value was 40 nm, the “λem (nm)” value is 668 nm, the “ε (M^-1 cm-1)” value is 125,500 M^-1 cm-1 and the ϕ is given as 0.44. The “stability … against solvent polarity changes” value in series [2] was “substantially improved stability”.
Take `CN(C)c1ccc2c(c1)[Si](C)(C)C1=CC(=[N+](C)C)C=CC1=C2c1ccccc1C(=O)O` [SiR]: in series [1], the Brightness is given as 7, the “Stokes Shift (nm)” value is given as 20 nm, the “FWHMabs (nm)” value came out at 39 nm and the “λabs (nm)” value turned out to be 642 nm. In series [1], the “FWHem (nm)” value came out at 41 nm, the “λem (nm)” value came out at 662 nm, the “ε (M^-1 cm-1)” value was 19,200 M^-1 cm-1 and the ϕ is recorded as 0.35. In addition, the “stability … against solvent polarity changes” value in series [2] was “diminished rapidly”.
As for `CN(C)c1ccc2c(c1)[Si](C)(C)C1=CC(=[N+](C)C)C=CC1=C2c1cc(C(=O)O)ccc1C(=O)[O-]` [SiRCOOH, 4-carboxy-2-(7-(dimethylamino)-3-(dimethyliminio)-5,5-dimethyl-3,5-dihydrodibenzo[b,e]silin-10-yl)benzoate], in series [1], the Brightness was determined as 29, the “Stokes Shift (nm)” value is listed as 22 nm, the “FWHMabs (nm)” value was 39 nm and the “λabs (nm)” value was 645 nm. In series [1], the “FWHem (nm)” value is reported as 42 nm, the “λem (nm)” value is recorded as 667 nm, the “ε (M^-1 cm-1)” value is recorded as 64,700 M^-1 cm-1 and the ϕ was 0.45.
With `CN(C)c1ccc2c(c1)[Si](C)(C)C1=CC(=[N+](C)C)C=CC1=C2c1cc(C(=O)NCCCn2cc(-c3cccc(Nc4ncnc5ccccc45)c3)nn2)ccc1C(=O)[O-]` [SiRErl(UnT)], in series [1], the Brightness is 5, the “Stokes Shift (nm)” value is listed as 16 nm, the “FWHMabs (nm)” value was determined as 38 nm and the “λabs (nm)” value amounted to 654 nm. Further, in series [1], the “FWHem (nm)” value came out at 43 nm, the “λem (nm)” value came out at 670 nm, the “ε (M^-1 cm-1)” value is recorded as 24,100 M^-1 cm-1 and the ϕ came to 0.19.
Regarding `CN(C)c1ccc2c(-c3cc(C(=O)NCc4ccc(COc5nc(N)nc6[nH]cnc56)cc4)ccc3C(=O)[O-])c3ccc(=[N+](C)C)cc-3oc2c1` [TMRSNAP], in series [1], the Brightness came out at 11, the “Stokes Shift (nm)” value is on record as 24 nm, the “FWHMabs (nm)” value is 58 nm and the “λabs (nm)” value is recorded as 553 nm. Besides, in series [1], the “FWHem (nm)” value came out at 45 nm, the “λem (nm)” value amounted to 577 nm, the “ε (M^-1 cm-1)” value is reported as 27,700 M^-1 cm-1 and the ϕ stood at 0.41.
For `CN(C)c1ccc2c(-c3cc(C(=O)NCCCn4cc(-c5cccc(Nc6ncnc7ccccc67)c5)nn4)ccc3C(=O)[O-])c3ccc(=[N+](C)C)cc-3oc2c1` [TMRErl(UnT)], in series [1], the Brightness was 7, the “Stokes Shift (nm)” value amounted to 26 nm, the “FWHMabs (nm)” value is recorded as 44 nm and the “λabs (nm)” value was 559 nm. In series [1], the “FWHem (nm)” value is recorded as 43 nm, the “λem (nm)” value is recorded as 585 nm, the “ε (M^-1 cm-1)” value is 18,700 M^-1 cm-1 and the ϕ turned out to be 0.37.
Take `CN(C)c1ccc2c(c1)[Si](C)(C)C1=CC(=[N+](C)C)C=CC1=C2c1cc(C(=O)NCCOCCOCCCCCCCl)ccc1C(=O)[O-]` [SiRHALO]: in series [1], the Brightness worked out at 3, the “Stokes Shift (nm)” value is listed as 18 nm, the “FWHMabs (nm)” value was 45 nm and the “λabs (nm)” value amounted to 646 nm. Also, in series [1], the “FWHem (nm)” value came out at 45 nm, the “λem (nm)” value is 664 nm, the “ε (M^-1 cm-1)” value is reported as 11,100 M^-1 cm-1 and the ϕ is reported as 0.25.

Values taken from US20230287217A1, “Zwitterionic Cell-Permeant and Water-Soluble Rhodamine Dyes for Quantitative Imaging Applications” (OREGON HEALTH & SCIENCE UNIVERSITY, priority 2020, published 2023).
